Active and inactive are the calls of the source. No rule for the calls is given here.
Assay: Luciferase light induction in v cholerae bh1651, agonist dose response, confirmatory (AID 624254)
Details: V. cholerae BH1651 luxOD47E, luciferase light induction, 6 h; at 50 µM (top of the series)

Structure (SMILES): O=C(COC(=O)C1CCC1)Nc1ccc(Oc2ccccc2)cc1
- activation (light increase): inactive

Structure (SMILES): CC(C)(C)c1ccc(C(=O)OCC(=O)NC2CC2)cc1
- activation (light increase): inactive

Structure (SMILES): CCCC(=O)NC1CCCc2c1cnn2-c1ccc(C)c(C)c1 (stereo not drawn)
- activation (light increase): inactive

Structure (SMILES): OCCN1CCN(CC(O)COc2ccc(Cl)cc2)CC1 (stereo not drawn)
- activation (light increase): inactive

Structure (SMILES): CC(OC(=O)Cn1cnc2c1c(=O)n(C)c(=O)n2C)C(=O)c1ccccc1 (stereo not drawn)
- activation (light increase): inactive

Structure (SMILES): COc1cc(NC(=O)c2ccccc2)c(OC)cc1NC(=O)CN1C(=O)N(C)C2(CCCCC2)C1=O
- activation (light increase): inactive

Structure (SMILES): COc1ccc(-c2nnc3c4ccccc4c(C)nn23)cc1
- activation (light increase): inactive

Structure (SMILES): Cc1ccccc1OC(C)c1nc(-c2ccccc2)no1 (stereo not drawn)
- activation (light increase): inactive

Structure (SMILES): CCOC(=O)C1CCCc2c1[nH]c1c(C(=O)O)cccc21 (stereo not drawn)
- activation (light increase): inactive

Structure (SMILES): Cc1cc(C(C)(C)C)oc1C(=O)OCC(=O)NC1CCCCC1
- activation (light increase): inactive

Structure (SMILES): COc1ccc(C(=O)COC(=O)CNC(=O)c2ccc(Cl)cc2Cl)c(OC)c1
- activation (light increase): inactive

Structure (SMILES): CC(=O)c1ccc(NC(=O)COc2ccccc2C(=O)Nc2ccccc2)cc1
- activation (light increase): inactive

Structure (SMILES): O=C(OCc1cc(=O)n2ccsc2n1)c1ccc(OC(F)F)cc1
- activation (light increase): inactive

Structure (SMILES): COc1ccc(C(=O)O)cc1S(=O)(=O)Nc1cccc(C(F)(F)F)c1
- activation (light increase): inactive

Structure (SMILES): COc1ccccc1NC(=O)COc1ccc2c(c1)OCO2
- activation (light increase): inactive

Structure (SMILES): CCOC(=O)Cc1c(C)[nH]c(=S)[nH]c1=O
- activation (light increase): inactive

Structure (SMILES): C=CCn1c(=O)c(C(=O)NC(C)c2ccccc2)c(O)c2ccccc21 (stereo not drawn)
- activation (light increase): inactive

Structure (SMILES): FC(F)Oc1ccccc1NC(=S)NCc1ccco1
- activation (light increase): inactive

Structure (SMILES): COC(=O)[C@H]1C[C@H](C(=O)O)[C@@H](C)C1(C)C
- activation (light increase): inactive

Structure (SMILES): Cc1ccc(C(=O)OCC(=O)NC2CCCC2)cc1
- activation (light increase): inactive

Structure (SMILES): CC(C)CNC(=O)c1c2c(nc3ccccc13)-c1ccccc1CC2
- activation (light increase): inactive

Structure (SMILES): CCCCN(C)CCNC(=O)c1ccc2c(c1)NC(=O)C(N1CCCCC1)S2 (stereo not drawn)
- activation (light increase): inactive

Structure (SMILES): CCC(=O)NCCc1nc(-c2ccccc2)no1
- activation (light increase): inactive

Structure (SMILES): CC1(C)NC(=O)N(CCOCCOc2ccc3ccccc3c2Br)C1=O
- activation (light increase): inactive

Structure (SMILES): O=[N+]([O-])c1ccc(NCCN2CCOCC2)c([N+](=O)[O-])c1
- activation (light increase): inactive

Structure (SMILES): CCCn1nnnc1NCc1ccc(N(CC)CC)cc1
- activation (light increase): inactive

Structure (SMILES): Cc1ccc(N(C(C)C(=O)N2CCCCC2)S(C)(=O)=O)cc1C (stereo not drawn)
- activation (light increase): inactive

Structure (SMILES): Cc1ccc(S(=O)(=O)N(C)C[C@H]2Oc3c(NC(=O)Nc4ccc5c(c4)OCO5)cccc3C(=O)N([C@H](C)CO)C[C@@H]2C)cc1
- activation (light increase): inactive

Structure (SMILES): O=C(Nc1nnc(C2CC2)s1)c1cccc(S(=O)(=O)N2CCc3ccccc32)c1
- activation (light increase): inactive

Structure (SMILES): CCOC(=O)c1sc2cc([N+](=O)[O-])cc(SCCO)c2c1N
- activation (light increase): inactive

Structure (SMILES): CN(C)CC(C)(C)CNC(=O)c1cc(=O)c2ccccc2o1
- activation (light increase): inactive

Structure (SMILES): CCCS(=O)(=O)N1CCCC(C(=O)NCc2ccc(C)cc2)C1 (stereo not drawn)
- activation (light increase): inactive

Structure (SMILES): N#Cc1ccccc1NC(=O)CNc1ccccc1N1CCCCC1
- activation (light increase): inactive

Structure (SMILES): CCN(CC)C(=O)c1sc(NC(=O)Cc2ccc(OC)cc2)c(C#N)c1C
- activation (light increase): inactive

Structure (SMILES): COc1ccc(OCC(=O)NC2CCCN(Cc3ccc(Cl)cc3)C2)cc1 (stereo not drawn)
- activation (light increase): inactive

Structure (SMILES): CCCCNC(=O)Nc1cc(C)on1
- activation (light increase): inactive

Structure (SMILES): COc1ccc2[nH]c(=O)c(CN(C(=O)c3cccnc3)c3ccc(C)cc3)cc2c1
- activation (light increase): inactive

Structure (SMILES): NS(=O)(=O)c1cc(C(=O)OCC(=O)NC2CCCCCCC2)ccc1Cl
- activation (light increase): inactive

Structure (SMILES): Cc1ccc(NC(=S)NCCc2c[nH]c3ccccc23)cc1
- activation (light increase): inactive

Structure (SMILES): COc1ccc(S(=O)(=O)Nc2ccc(S(=O)(=O)N3CCOCC3)cc2)cc1C
- activation (light increase): inactive

Structure (SMILES): Cc1cc(COc2ccccc2O)on1
- activation (light increase): inactive

Structure (SMILES): COc1cc2c(c(OC)c1OC)C(c1ccc(C)cc1)CC(=O)O2 (stereo not drawn)
- activation (light increase): inactive

Structure (SMILES): CCOC(=O)c1c(-c2ccccc2)csc1NC(=O)c1nn(CC)cc1Br
- activation (light increase): inactive

Structure (SMILES): CC(C)CCN1CC(C(=O)N2CCN(c3ccc(F)cc3)CC2)CC1=O (stereo not drawn)
- activation (light increase): inactive

Structure (SMILES): O=C(CN1C(=O)CSC1=O)NC1CCCCC1
- activation (light increase): inactive

Structure (SMILES): O=C(Oc1ccc2ccc(OC(=O)N3CCOCC3)cc2c1)N1CCOCC1
- activation (light increase): inactive

Structure (SMILES): C[C@@H]1CN([C@H](C)CO)C(=O)c2cccc(NC(=O)C3CC3)c2O[C@H]1CN(C)S(=O)(=O)c1cccs1
- activation (light increase): inactive

Structure (SMILES): Cc1nnc2c3ccccc3c(-c3ccc(O)cc3)nn12
- activation (light increase): inactive

Structure (SMILES): CCc1nnc(NC(=O)C2CC(=O)N(c3ccc(C)cc3)C2)s1 (stereo not drawn)
- activation (light increase): inactive

Structure (SMILES): Cc1cc(OC(F)F)ccc1NC(=S)NCCc1ccccc1
- activation (light increase): inactive

Structure (SMILES): Cn1c(CCNC(=O)c2ccco2)nc2cc(NC(=O)NC3CCCCC3)ccc21
- activation (light increase): inactive

Structure (SMILES): NC(=O)c1nsc(C(=O)N(CC(=O)NCc2ccc(F)cc2)Cc2ccco2)c1N
- activation (light increase): inactive

Structure (SMILES): CCN(CC(=O)Nc1c(F)cccc1F)C(=O)c1ccc(C)c(S(=O)(=O)N2CCCCC2)c1
- activation (light increase): inactive

Structure (SMILES): Cn1c(=O)oc2cc(S(=O)(=O)N3CCN(c4ccc(F)cc4)CC3)ccc21
- activation (light increase): inactive

Structure (SMILES): O=C(Nc1nnc(-c2ccc(Br)cc2)o1)c1cccc(N2C(=O)CCC2=O)c1
- activation (light increase): inactive

Structure (SMILES): O=C(COC(=O)CNC(=O)c1ccco1)NCCN1C(=O)CSC1=O
- activation (light increase): inactive

Structure (SMILES): CCCn1nnnc1SCC(=O)c1ccc2c(c1)OCCO2
- activation (light increase): inactive

Structure (SMILES): COc1ccccc1NC(=O)COC(=O)c1ccc2c(c1)OCCO2
- activation (light increase): inactive

Structure (SMILES): COc1ccc(OC)c(NC(=O)Nc2cccc(Cn3cccn3)c2)c1
- activation (light increase): inactive

Structure (SMILES): C[C@H]1CN([C@@H](C)CO)C(=O)c2cccc(NC(=O)C3CC3)c2O[C@H]1CN(C)S(=O)(=O)c1cccs1
- activation (light increase): inactive

Structure (SMILES): Cc1ccc(S(=O)(=O)N(C)c2ccc(OCC(=O)N3CCCCC3)cc2)cc1
- activation (light increase): inactive

Structure (SMILES): CCCOC(=O)c1ccc(NC(=O)CCC(=O)OCC)cc1
- activation (light increase): inactive

Structure (SMILES): CCCN1CCN(C(=O)CCCNC(=O)Cn2cnc3sc(C)c(C)c3c2=O)CC1
- activation (light increase): inactive

Structure (SMILES): COc1ccc(CC(=O)N2CCC(Nc3nc4ccccc4n3Cc3ccc(F)cc3)CC2)cc1
- activation (light increase): inactive

Structure (SMILES): C=Cn1c(C(=O)O)ccc1-c1ccccc1
- activation (light increase): inactive

Structure (SMILES): CN(CC(=O)Nc1ccc(F)c(F)c1F)C(=O)C1CCC1
- activation (light increase): inactive

Structure (SMILES): O=S(=O)(Nc1ccc(-c2ccc3nncn3n2)cc1)c1ccc(Cl)s1
- activation (light increase): inactive

Structure (SMILES): Cc1noc(C)c1NC(=O)Nc1cccc2c1O[C@@H](CN(C)S(=O)(=O)c1cccs1)[C@@H](C)CN([C@@H](C)CO)C2=O
- activation (light increase): inactive

Structure (SMILES): Cc1cc(C)c(S(C)(=O)=O)c(Oc2ccc(C(C)(C)C)cc2)n1
- activation (light increase): inactive

Structure (SMILES): COc1cccc(CNC(=O)COC(=O)CN(C)S(=O)(=O)c2ccc(NC(C)=O)cc2)c1
- activation (light increase): inactive

Structure (SMILES): O=S(=O)(Cc1ccc(Cl)cc1)N1CCN(Cc2ccccc2)CC1
- activation (light increase): inactive

Structure (SMILES): Cn1cnc(S(=O)(=O)Nc2ccc(-c3ccccc3)cc2)c1
- activation (light increase): inactive

Structure (SMILES): O=C(COC(=O)c1cc(Cl)ccc1Cl)NC1CCCC1
- activation (light increase): inactive

Structure (SMILES): C[C@H](CO)N1C[C@H](C)[C@@H](CN(C)S(=O)(=O)c2ccc(F)cc2)Oc2c(NC(=O)Nc3ccc4c(c3)OCO4)cccc2C1=O
- activation (light increase): inactive

Structure (SMILES): COc1ccc(CCNC(=O)C(=O)NCC2CCCN2S(=O)(=O)c2ccc(OC)cc2)cc1 (stereo not drawn)
- activation (light increase): inactive

Structure (SMILES): O=C(NCc1ccco1)c1cc2n(n1)C(C(F)(F)F)CC(c1ccc(Cl)c(Cl)c1)N2 (stereo not drawn)
- activation (light increase): inactive

Structure (SMILES): COC(=O)c1ccc(CSc2nnc3c(Cl)cc(Cl)cn23)o1
- activation (light increase): inactive

Structure (SMILES): CCCCNC(=O)CN(c1cccc(Br)c1)S(C)(=O)=O
- activation (light increase): inactive

Structure (SMILES): CC(C)Oc1ccc(OCCCN2CCCCCC2)cc1
- activation (light increase): inactive

Structure (SMILES): Cc1cccc(NC(=O)c2ccc(Oc3ccccc3)cc2)n1
- activation (light increase): inactive

Structure (SMILES): CCCCc1cc2c(cc1NC(=O)CN1CCCCC1)OCCO2
- activation (light increase): inactive

Structure (SMILES): Cn1cnc(S(=O)(=O)Nc2ccccc2)c1
- activation (light increase): inactive

Structure (SMILES): O=C(Nc1cccc(Cl)c1)Nc1ccc(Cl)cn1
- activation (light increase): inactive

Structure (SMILES): COc1ccc(S(=O)(=O)N2CCOCC2)cc1NC(=O)CSc1nnc(C2CC2)n1C1CC1
- activation (light increase): inactive

Structure (SMILES): C=Cn1c(C(=O)O)ccc1-c1cccs1
- activation (light increase): inactive

Structure (SMILES): COC(=O)c1ccc(C2C(C(C)=O)=C(O)C(=O)N2CCO)cc1 (stereo not drawn)
- activation (light increase): inactive

Structure (SMILES): COc1ccc(N2CCN(CC(=O)Nc3c(C)cc(C)cc3C)CC2)cc1
- activation (light increase): inactive

Structure (SMILES): CCn1nnnc1NCc1ccc(N2CCCC2)cc1
- activation (light increase): inactive

Structure (SMILES): C=CCNC(=O)CCCOc1ccc(C)cc1
- activation (light increase): inactive

Structure (SMILES): C[C@H](CO)N1C[C@H](C)[C@H](CN(C)S(=O)(=O)c2ccccc2)Oc2c(NC(=O)Nc3ccc4c(c3)OCO4)cccc2C1=O
- activation (light increase): inactive

Structure (SMILES): CCOC(=O)c1c(NC(=S)Nc2ccc(Cl)cc2)sc(C)c1C
- activation (light increase): inactive

Structure (SMILES): Cn1ccnc1S(=O)(=O)Nc1ccc(OC(F)(F)F)cc1
- activation (light increase): inactive

Structure (SMILES): COc1ccc(/C(N)=N/OC(=O)Cc2ccccc2OC)cc1
- activation (light increase): inactive

Structure (SMILES): CC1CCCN(C(=O)Cn2c(-c3nonc3N)nc3ccccc32)C1 (stereo not drawn)
- activation (light increase): inactive

Structure (SMILES): COc1ccc(OC)c(NC(=O)COC(=O)c2cc3c(s2)CCC3)c1
- activation (light increase): inactive

Structure (SMILES): O=C(Nc1c(F)c(F)c(F)c(F)c1F)C1CCCCC1
- activation (light increase): inactive

Structure (SMILES): Nc1nnc(SCC(=O)Nc2ccc3c(c2)OCCO3)s1
- activation (light increase): inactive

Structure (SMILES): Cn1cnc(S(=O)(=O)Nc2ccccc2Cl)c1
- activation (light increase): inactive

From PubChem BioAssay AID624254 (Broad Institute, 2012)
